According to ChEMBL document CHEMBL6096698, “Discovery of a Selective and Orally Bioavailable RET Degrader with Effectiveness in Various Mutations” (J Med Chem, 2025):
pIC50: −log10 of the molar value. Activity calls are given as the source filed them. The rule behind the calls is not given here.

Key:
BaF3 [1] = assay: Antiproliferative activity against mouse BaF3 cells stably expressing KIF5B-RET G810S mutant incubated for 72 hrs by CCK8 assay; assay type: functional, cell-based; settings: BaF3, 72 h
BaF3 [2] = assay: Antiproliferative activity against mouse BaF3 cells stably expressing KIF5B-RET incubated for 72 hrs by CCK8 assay; assay type: functional, cell-based; settings: BaF3, 72 h
BaF3 [3] = assay: PROTAC activity at VHL/KIF5B-RET (unknown origin) expressed in mouse BaF3 cells assessed as induction of RET degradation at 10 nM incubated for 24 hrs by immunoblot analysis relative to control; assay type: cell-based
BaF3 [4] = assay: Antiproliferative activity against mouse BaF3 cells stably expressing KIF5B-RET G810R mutant incubated for 72 hrs by CCK8 assay; assay type: functional, cell-based; settings: BaF3, 72 h
BaF3 [5] = assay: Antiproliferative activity against mouse BaF3 cells stably expressing KIF5B-RET G810C mutant incubated for 72 hrs by CCK8 assay; assay type: functional, cell-based; settings: BaF3, 72 h
BaF3 [6] = assay: Antiproliferative activity against mouse BaF3 cells stably expressing KIF5B-RET V804M mutant incubated for 72 hrs by CCK8 assay; assay type: functional, cell-based; settings: BaF3, 72 h
BaF3 [7] = assay: PROTAC activity at CRBN/KIF5B-RET (unknown origin) expressed in mouse BaF3 cells assessed as induction of RET degradation at 10 nM incubated for 24 hrs by immunoblot analysis relative to control; assay type: cell-based
[8] = Induction of apoptosis in mouse BaF3 cells stably expressing KIF5B-RET G810C mutant assessed as early apoptotic cells at 100 nM incubated for 48 hrs by Annexin V-FITC/PI staining based flow cytometry (reference value: 0.86 %); assay type: functional
BaF3 [9] = assay: Antiproliferative activity against mouse BaF3 cells stably expressing CCDC6-RET G810C mutant incubated for 72 hrs by CCK8 assay; assay type: functional, cell-based; settings: BaF3, 72 h
BaF3 [10] = assay: Antiproliferative activity against mouse BaF3 cells stably expressing CCDC6-RET V804M mutant incubated for 72 hrs by CCK8 assay; assay type: functional, cell-based; settings: BaF3, 72 h
[11] = Induction of apoptosis in mouse BaF3 cells stably expressing KIF5B-RET G810C mutant assessed as viable cells at 100 nM incubated for 48 hrs by Annexin V-FITC/PI staining based flow cytometry (reference value: 92.21 %); assay type: functional; settings: read-out: Activity
BaF3 [12] = assay: Antiproliferative activity against mouse BaF3 cells stably expressing CCDC6-RET incubated for 72 hrs by CCK8 assay; assay type: functional, cell-based; settings: BaF3, 72 h
BaF3 [13] = assay: Induction of degradation of KIF5B-RET (unknown origin) expressed in mouse BaF3 cells at 10 nM incubated for 24 hrs by immunoblot analysis relative to control; assay type: cell-based; settings: Homo sapiens
[14] = Induction of apoptosis in mouse BaF3 cells stably expressing KIF5B-RET G810C mutant assessed as late apoptotic cells at 100 nM incubated for 48 hrs by Annexin V-FITC/PI staining based flow cytometry (reference value: 5.99 %); assay type: functional
[15] = Induction of apoptosis in mouse BaF3 cells stably expressing KIF5B-RET G810C mutant assessed as necrotic cells at 100 nM incubated for 48 hrs by Annexin V-FITC/PI staining based flow cytometry (reference value: 0.94 %); assay type: functional
BaF3 [16] = assay: Antiproliferative activity against mouse BaF3 cells stably expressing CCDC6-RET G810R mutant incubated for 72 hrs by CCK8 assay; assay type: functional, cell-based; settings: BaF3, 72 h
BaF3 [17] = assay: PROTAC activity at CRBN/KIF5B-RET (unknown origin) expressed in mouse BaF3 cells assessed as induction of RET degradation at 10 nM incubated for 24 hrs by immunoblot analysis; assay type: cell-based
[18] = biological target: Proto-oncogene tyrosine-protein kinase receptor Ret (Homo sapiens, UniProt P07949); assay: Inhibition of RET (unknown origin) preincubated for 10 mins followed by substrate/ATP addition measured after 30 mins by HTRF assay
Proto-oncogene tyrosine-protein kinase receptor Ret, sequence (P07949 whole entry): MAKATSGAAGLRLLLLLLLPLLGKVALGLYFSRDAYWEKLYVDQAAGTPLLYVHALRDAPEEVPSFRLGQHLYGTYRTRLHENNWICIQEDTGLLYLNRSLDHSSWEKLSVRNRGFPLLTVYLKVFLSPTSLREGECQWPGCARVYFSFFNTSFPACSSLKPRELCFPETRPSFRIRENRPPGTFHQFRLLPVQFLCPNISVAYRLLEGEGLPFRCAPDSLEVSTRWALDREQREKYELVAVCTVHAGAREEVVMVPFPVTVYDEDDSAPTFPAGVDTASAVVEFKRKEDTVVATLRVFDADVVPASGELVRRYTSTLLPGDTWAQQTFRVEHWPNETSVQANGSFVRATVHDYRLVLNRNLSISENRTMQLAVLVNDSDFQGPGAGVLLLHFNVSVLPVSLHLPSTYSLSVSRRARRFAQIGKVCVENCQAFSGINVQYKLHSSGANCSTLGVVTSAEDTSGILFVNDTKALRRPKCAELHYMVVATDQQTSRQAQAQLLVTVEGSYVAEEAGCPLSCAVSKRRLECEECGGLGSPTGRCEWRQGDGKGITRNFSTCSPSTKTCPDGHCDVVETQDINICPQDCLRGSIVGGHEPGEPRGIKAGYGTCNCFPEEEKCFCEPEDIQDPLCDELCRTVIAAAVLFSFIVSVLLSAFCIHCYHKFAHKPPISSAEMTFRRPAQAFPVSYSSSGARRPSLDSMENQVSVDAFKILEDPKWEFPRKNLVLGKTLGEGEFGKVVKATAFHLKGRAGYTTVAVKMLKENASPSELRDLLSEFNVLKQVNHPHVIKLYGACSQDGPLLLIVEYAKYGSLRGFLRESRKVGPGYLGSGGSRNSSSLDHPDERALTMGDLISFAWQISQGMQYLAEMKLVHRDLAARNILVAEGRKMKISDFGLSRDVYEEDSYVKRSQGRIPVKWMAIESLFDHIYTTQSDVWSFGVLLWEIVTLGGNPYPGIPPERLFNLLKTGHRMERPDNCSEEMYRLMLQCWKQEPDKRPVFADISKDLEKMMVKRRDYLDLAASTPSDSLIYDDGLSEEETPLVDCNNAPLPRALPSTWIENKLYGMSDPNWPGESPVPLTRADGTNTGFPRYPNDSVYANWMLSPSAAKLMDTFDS

Structure (SMILES) | pIC50 (BaF3 [1]) | pIC50 (BaF3 [2]) | pIC50 (BaF3 [4]) | pIC50 (BaF3 [5]) | pIC50 (BaF3 [6]) | pIC50 (BaF3 [9]) | pIC50 (BaF3 [10]) | pIC50 (BaF3 [12]) | pIC50 (BaF3 [16]) | pIC50 [18] | Activity (BaF3 [3]) | Activity (BaF3 [7]) | Activity [8] | viability at 0.1 µM [11] | Activity (BaF3 [13]) | Activity [14] | Activity [15] | Activity (BaF3 [17])
COc1ccc(CN2C3CC2CN(c2ccc(-c4cc(N5CCC(N6CCN(C(=O)CCCNc7ccc8c(c7)C(=O)N(C7CCC(=O)NC7=O)C8=O)CC6)CC5)cn5ncc(C#N)c45)cn2)C3)cn1 (stereo unspecified) | 6.90 | 7.83 | 6.09 | 6.08 | 6.82 |  |  |  |  |  |  | 39% |  |  |  |  |  | 
COc1ccc(CN2C3CC2CN(c2ccc(-c4cc(OCC(C)(C)O)cn5ncc(C#N)c45)cn2)C3)cn1 [SELPERCATINIB] | 7.02 | 8.11 | 6.16 | 6.42 | 7.78 | 6.20 | 7.91 | 8.38 | 6.44 |  |  |  | 1.04% | 90.7% | 0% | 6.67% | 1.63% | 
COc1ccc(CN2C3CC2CN(c2ccc(-c4cc(N5CCC(N6CCN(CCCC#Cc7cccc8c7CN(C7CCC(=O)N(C)C7=O)C8=O)CC6)CC5)cn5ncc(C#N)c45)cn2)C3)cn1 (stereo unspecified) |  |  |  |  |  |  |  |  |  |  |  |  |  |  |  |  |  | inactive
COc1ccc(CN2C3CC2CN(c2ccc(-c4cc(N5CCN(C6CCN(c7ccc8c(c7)C(=O)N(C7CCC(=O)NC7=O)C8=O)CC6)CC5)cn5ncc(C#N)c45)cn2)C3)cn1 (stereo unspecified) | < 5.30 | 7.80 | 6.12 | 6.43 | 7.42 |  |  |  |  |  |  | 36% |  |  |  |  |  | 
COc1ccc(CN2C3CC2CN(c2ccc(-c4cc(N5CCC(N6CCN(C(=O)CCCNc7cccc8c7C(=O)N(C7CCC(=O)NC7=O)C8=O)CC6)CC5)cn5ncc(C#N)c45)cn2)C3)cn1 (stereo unspecified) | 7.12 | 8.60 | 6.29 | 6.83 | 7.95 |  |  |  |  | 9.56 |  | 62% |  |  |  |  |  | 
COc1ccc(CN2C3CC2CN(c2ccc(-c4cc(N5CCNCC5)cn5ncc(C#N)c45)cn2)C3)cn1 | 7.01 | 8.25 | 6.11 | 6.97 | 7.44 |  |  |  |  |  |  |  |  |  | 0% |  |  | 

Second part, led by results:

pIC50 (BaF3 [1]) | pIC50 (BaF3 [2]) | pIC50 (BaF3 [4]) | pIC50 (BaF3 [5]) | pIC50 (BaF3 [6]) | pIC50 (BaF3 [9]) | pIC50 (BaF3 [10]) | pIC50 (BaF3 [12]) | pIC50 (BaF3 [16]) | pIC50 [18] | Structure (SMILES) | Activity (BaF3 [3]) | Activity (BaF3 [7]) | Activity [8] | viability at 0.1 µM [11] | Activity (BaF3 [13]) | Activity [14] | Activity [15] | Activity (BaF3 [17])
< 5.30 | 7.40 | < 5.30 | < 5.30 | 6.01 |  |  |  |  |  | COc1ccc(CN2C3CC2CN(c2ccc(-c4cc(N5CCN(CCCCCCC(=O)N[C@H](C(=O)N6C[C@H](O)C[C@H]6C(=O)N[C@@H](C)c6ccc(-c7scnc7C)cc6)C(C)(C)C)CC5)cn5ncc(C#N)c45)cn2)C3)cn1 | 23% |  |  |  |  |  |  | 
< 5.30 | 6.51 | < 5.30 | < 5.30 | < 5.30 |  |  |  |  |  | COc1ccc(CN2C3CC2CN(c2ccc(-c4cc(N5CCN(C(=O)CCCCC(=O)N[C@H](C(=O)N6C[C@H](O)C[C@H]6C(=O)N[C@@H](C)c6ccc(-c7scnc7C)cc6)C(C)(C)C)CC5)cn5ncc(C#N)c45)cn2)C3)cn1 | 10% |  |  |  |  |  |  | 
6.42 | 7.72 | 5.75 | 5.86 | 6.72 |  |  |  |  |  | COc1ccc(CN2C3CC2CN(c2ccc(-c4cc(N5CCN(C(=O)CNc6cccc7c6C(=O)N(C6CCC(=O)NC6=O)C7=O)CC5)cn5ncc(C#N)c45)cn2)C3)cn1 (stereo unspecified) |  | 33% |  |  |  |  |  | 
< 5.30 | 6.64 | < 5.30 | 6.07 | 6.55 |  |  |  |  |  | COc1ccc(CN2C3CC2CN(c2ccc(-c4cc(N5CCN(CCCCC(=O)N[C@H](C(=O)N6C[C@H](O)C[C@H]6C(=O)N[C@@H](C)c6ccc(-c7scnc7C)cc6)C(C)(C)C)CC5)cn5ncc(C#N)c45)cn2)C3)cn1 | 15% |  |  |  |  |  |  | 
6.66 | 7.91 | < 5.30 | 6.39 | 7.44 |  |  |  |  |  | COc1ccc(CN2C3CC2CN(c2ccc(-c4cc(N5CCN(C(=O)CCCCCCCCC(=O)N[C@H](C(=O)N6C[C@H](O)C[C@H]6C(=O)N[C@@H](C)c6ccc(-c7scnc7C)cc6)C(C)(C)C)CC5)cn5ncc(C#N)c45)cn2)C3)cn1 | 39% |  |  |  |  |  |  | 
6.70 | 7.88 | 5.79 | 5.85 | 6.68 |  |  |  |  |  | COc1ccc(CN2C3CC2CN(c2ccc(-c4cc(N5CCN(C(=O)CCCNc6ccc7c(c6)C(=O)N(C6CCC(=O)NC6=O)C7=O)CC5)cn5ncc(C#N)c45)cn2)C3)cn1 (stereo unspecified) |  | 41% |  |  |  |  |  | 
